Values quoted from earlier work in US8063249B1, “Substituted triphenyl butenes” (Olema Pharmaceuticals, Inc., priority 2008, dated 2011).
Read-outs that look alike come from different tables or passages of the source.

Assays:
ER = conditions: for binding constants for the ER compared with estradiol: relative to estradiol, from Jordan, Steroids 2007; for binding to the ER: statement in words, from the literature
UGT 1A8 = biological target: T1, UGT 1A8 (Homo sapiens, UniProt Q9HAW9)
T1 sequence (Q9HAW9 26-530): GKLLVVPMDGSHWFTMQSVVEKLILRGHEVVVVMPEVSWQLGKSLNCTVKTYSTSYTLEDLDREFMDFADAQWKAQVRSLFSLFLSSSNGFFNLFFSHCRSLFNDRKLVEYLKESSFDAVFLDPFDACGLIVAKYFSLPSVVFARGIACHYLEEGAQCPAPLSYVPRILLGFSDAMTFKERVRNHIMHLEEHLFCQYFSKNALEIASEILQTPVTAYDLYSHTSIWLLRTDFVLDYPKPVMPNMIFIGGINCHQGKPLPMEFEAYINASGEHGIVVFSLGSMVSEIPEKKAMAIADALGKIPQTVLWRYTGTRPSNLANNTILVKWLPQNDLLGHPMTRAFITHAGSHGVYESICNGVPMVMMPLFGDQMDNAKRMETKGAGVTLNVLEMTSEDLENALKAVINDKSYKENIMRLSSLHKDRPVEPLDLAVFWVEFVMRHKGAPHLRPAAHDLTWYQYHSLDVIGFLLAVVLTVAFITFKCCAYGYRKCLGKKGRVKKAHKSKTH

UGT 1A10 = biological target: T2, UGT 1A10 (Homo sapiens, UniProt Q9HAW8)
T2 sequence (Q9HAW8 26-530): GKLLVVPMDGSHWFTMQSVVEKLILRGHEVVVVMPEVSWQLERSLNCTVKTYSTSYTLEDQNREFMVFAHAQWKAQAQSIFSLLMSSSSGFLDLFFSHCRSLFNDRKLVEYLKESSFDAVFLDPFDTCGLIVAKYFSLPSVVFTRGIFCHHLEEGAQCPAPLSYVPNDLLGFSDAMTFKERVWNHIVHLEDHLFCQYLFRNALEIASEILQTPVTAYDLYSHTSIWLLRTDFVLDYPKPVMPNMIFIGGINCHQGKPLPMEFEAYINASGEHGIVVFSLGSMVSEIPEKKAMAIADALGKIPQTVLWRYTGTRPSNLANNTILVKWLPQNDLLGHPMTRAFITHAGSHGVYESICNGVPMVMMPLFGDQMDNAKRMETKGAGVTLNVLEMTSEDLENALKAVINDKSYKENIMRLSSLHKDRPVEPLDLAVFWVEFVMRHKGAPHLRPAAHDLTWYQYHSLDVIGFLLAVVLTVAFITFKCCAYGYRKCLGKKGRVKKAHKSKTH

[1] = hydroxy group, from Sun et al. 2007

Compound | binding constants for the ER compared with estradiol (ER) | binding to the ER (ER) | substrate for O-glucuronidation by UGT 1A8 (UGT 1A8) | substrate for O-glucuronidation by UGT 1A10 (UGT 1A10) | substrate for O-glucuronidation by UGT 1A8 (UGT 1A8; [1]) | substrate for O-glucuronidation by UGT 1A10 (UGT 1A10; [1])
4-hydroxy tamoxifen | roughly equal to that of estradiol | bind with high affinity | substrates for O-glucuronidation | substrates for O-glucuronidation |  | 
CC/C(=C(\c1ccccc1)c1ccc(OCCN(C)C)cc1)c1ccccc1 [Tamoxifen, tamoxifen] |  | binds very poorly |  |  |  | 
CC/C(=C(\c1ccc(O)cc1)c1ccc(OCCNC)cc1)c1ccccc1 [endoxifen, 4-hydroxy N-desmethyl tamoxifen] | roughly equal to that of estradiol | bind with high affinity |  |  | substrates for O-glucuronidation | substrates for O-glucuronidation
CCC(=C(c1ccc(OCCNC)cc1)c1ccc(OC2OC(C(=O)O)C(O)C(O)C2O)cc1)c1ccccc1 (stereo not shown) [glucuronated endoxifen] |  | can no longer bind |  |  |  | 
